In ChEMBL document CHEMBL1135868, “Small ligands interacting with the phosphotyrosine binding pocket of the Src SH2 protein” (Bioorg Med Chem Lett, 2002) one finds IC50 data, which are given here for 38 molecules.

In this test the target is Proto-oncogene tyrosine-protein kinase Src (Homo sapiens, UniProt P12931). Kind of test: The compound was evaluated for its binding affinity towards phosphotyrosine binding pocket of Src protein tyrosine kinase SH2 domain.
Proto-oncogene tyrosine-protein kinase Src, sequence (P12931 2-536 limits assumed): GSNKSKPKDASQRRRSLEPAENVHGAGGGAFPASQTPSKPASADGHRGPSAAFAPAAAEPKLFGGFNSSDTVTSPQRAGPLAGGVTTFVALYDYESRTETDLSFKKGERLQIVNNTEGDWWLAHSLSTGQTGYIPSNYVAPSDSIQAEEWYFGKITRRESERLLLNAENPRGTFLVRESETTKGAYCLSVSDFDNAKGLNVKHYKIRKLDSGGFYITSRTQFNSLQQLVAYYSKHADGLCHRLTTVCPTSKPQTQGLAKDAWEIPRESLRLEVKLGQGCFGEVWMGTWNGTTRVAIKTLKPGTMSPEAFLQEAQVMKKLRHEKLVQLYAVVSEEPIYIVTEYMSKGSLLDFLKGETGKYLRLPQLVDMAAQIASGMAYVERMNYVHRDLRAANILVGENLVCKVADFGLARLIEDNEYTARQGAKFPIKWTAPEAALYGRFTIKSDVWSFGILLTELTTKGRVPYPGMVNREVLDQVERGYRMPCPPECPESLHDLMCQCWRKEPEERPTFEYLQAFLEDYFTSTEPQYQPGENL

As for `COP(=O)(O)Oc1ccccc1C=O`, the IC50 – broadly, the concentration needed to halve the response being measured – came out at 3.3 mM.
Take `COC(=O)c1cccc(OP(=O)(O)O)c1`: the IC50 was 4 mM.
With `COc1ccc(OP(=O)(O)O)cc1`, the IC50 was found to be 4 mM.
The molecule `Cc1ccc(OP(=O)(O)O)cc1` came in with an IC50 of 2 mM.
To `O=P(O)(O)Oc1ccc(SC(F)(F)F)cc1` belongs 1.2 mM; to `COC(=O)c1cc2ccccc2cc1OP(=O)(O)O`, 3.2 mM; to `CCc1ccc(NC(=O)P(=O)(O)OCc2ccccc2)cc1`, greater than 5 mM.
Under `CC(C)c1ccc(C(O)P(=O)(O)O)cc1` (stereo not drawn) stands greater than 10 mM; under `COc1ccccc1C(O)P(=O)(O)O` (stereo not drawn), greater than 10 mM.
`O=C(Nc1ccc(OCc2ccccc2)cc1)P(=O)(O)O`: the IC50 came out at 0.8 mM.
Under `CCCOc1ccc(C(O)P(=O)(O)O)cc1` (stereo not drawn) stands 2.4 mM; under `O=P(O)(O)Oc1cccc2ccccc12`, 1 mM; under `CCCCOc1ccc(NC(=O)P(=O)(O)O)cc1`, 3.9 mM.
To `O=P(O)(O)Oc1ccc2ccccc2c1` belongs 1 mM; to `CC(C)(C)c1ccc(OP(=O)(O)O)cc1`, 4 mM.
For the molecule `COc1cc(NC(=O)P(=O)(O)O)cc(OC)c1OC`, the IC50 amounted to 2.1 mM.
Consider `O=P(O)(O)C(O)c1ccc2ccccc2c1` (stereo not drawn), for which the IC50 is 4.4 mM.
To `O=P(O)(O)C(O)C1CCCCC1` (stereo not drawn) belongs greater than 10 mM; to `CCOC(=O)c1ccc(NC(=O)P(=O)(O)O)cc1`, 3.6 mM; to `O=C(Nc1ccccc1OC(F)(F)F)P(=O)(O)O`, 4 mM.
Under `Cc1cccc(C)c1OP(=O)(O)O` stands greater than 10 mM; under `O=P(O)(O)Oc1ccccc1Cl`, 3.5 mM; under `CC(C)OP(=O)(O)Oc1ccccc1C=O`, 2.1 mM.
In turn, `O=Cc1cccc(C=O)c1OP(=O)(O)O` had an IC50 of 0.5 mM.
Under `COC(=O)c1ccc(OP(=O)(O)O)cc1` stands 4 mM; under `O=P(O)(O)C(O)c1ccc(-c2ccccc2)cc1` (stereo not drawn), greater than 10 mM.
Under `O=P(O)(O)Oc1cccc2cccnc12` stands greater than 10 mM; under `CC(=O)c1ccc2ccccc2c1OP(=O)(O)O`, 3.5 mM.
Under `O=Cc1ccccc1OP(=O)(O)O` stands 0.2 mM; under `Nc1ccc(OP(=O)(O)O)cc1`, 0.6 mM.
Molecule `O=Cc1cccc(OP(=O)(O)O)c1` displayed an IC50 of 2.4 mM.
`Cc1cccc(OP(=O)(O)O)c1` yielded an IC50 of 4 mM.
Turning to `O=C(NCc1ccccc1)P(=O)(O)O` [(BENZYLAMINO)CARBONYLPHOSPHONIC ACID], the IC50 was 4.4 mM.
Under `O=P(O)(O)C(O)c1ccccc1` (stereo not drawn) [ALPHA HYDROXY BENZYLPHOSPHONATE] stands greater than 10 mM; under `O=C(O)c1ccccc1OP(=O)(O)O` [FOSFOSAL], 2 mM.
To `O=C(NCCc1ccccc1)P(=O)(O)O` [PHENETHYLCARBAMOYLPHOSPHONIC ACID] belongs greater than 5 mM; to `O=P(O)(O)Oc1ccccc1` [PHENYL DIHYDROGEN PHOSPHATE], 2.5 mM; to `O=[N+]([O-])c1ccc(OP(=O)(O)O)cc1` [p-NITROPHENYLPHOSPHATE], 1 mM.
